These results are taken from patent US20240336606A1 (Suzhou Zelgen Biopharmaceuticals Co., Ltd., priority 2020, published 2024).

The target in this experiment is T1, binding of KRAS^G12C to SOS1 (Homo sapiens, UniProt Q07889).
T1 construct: Tag1 (unspecified)
T1 sequence (Q07889 1-1333): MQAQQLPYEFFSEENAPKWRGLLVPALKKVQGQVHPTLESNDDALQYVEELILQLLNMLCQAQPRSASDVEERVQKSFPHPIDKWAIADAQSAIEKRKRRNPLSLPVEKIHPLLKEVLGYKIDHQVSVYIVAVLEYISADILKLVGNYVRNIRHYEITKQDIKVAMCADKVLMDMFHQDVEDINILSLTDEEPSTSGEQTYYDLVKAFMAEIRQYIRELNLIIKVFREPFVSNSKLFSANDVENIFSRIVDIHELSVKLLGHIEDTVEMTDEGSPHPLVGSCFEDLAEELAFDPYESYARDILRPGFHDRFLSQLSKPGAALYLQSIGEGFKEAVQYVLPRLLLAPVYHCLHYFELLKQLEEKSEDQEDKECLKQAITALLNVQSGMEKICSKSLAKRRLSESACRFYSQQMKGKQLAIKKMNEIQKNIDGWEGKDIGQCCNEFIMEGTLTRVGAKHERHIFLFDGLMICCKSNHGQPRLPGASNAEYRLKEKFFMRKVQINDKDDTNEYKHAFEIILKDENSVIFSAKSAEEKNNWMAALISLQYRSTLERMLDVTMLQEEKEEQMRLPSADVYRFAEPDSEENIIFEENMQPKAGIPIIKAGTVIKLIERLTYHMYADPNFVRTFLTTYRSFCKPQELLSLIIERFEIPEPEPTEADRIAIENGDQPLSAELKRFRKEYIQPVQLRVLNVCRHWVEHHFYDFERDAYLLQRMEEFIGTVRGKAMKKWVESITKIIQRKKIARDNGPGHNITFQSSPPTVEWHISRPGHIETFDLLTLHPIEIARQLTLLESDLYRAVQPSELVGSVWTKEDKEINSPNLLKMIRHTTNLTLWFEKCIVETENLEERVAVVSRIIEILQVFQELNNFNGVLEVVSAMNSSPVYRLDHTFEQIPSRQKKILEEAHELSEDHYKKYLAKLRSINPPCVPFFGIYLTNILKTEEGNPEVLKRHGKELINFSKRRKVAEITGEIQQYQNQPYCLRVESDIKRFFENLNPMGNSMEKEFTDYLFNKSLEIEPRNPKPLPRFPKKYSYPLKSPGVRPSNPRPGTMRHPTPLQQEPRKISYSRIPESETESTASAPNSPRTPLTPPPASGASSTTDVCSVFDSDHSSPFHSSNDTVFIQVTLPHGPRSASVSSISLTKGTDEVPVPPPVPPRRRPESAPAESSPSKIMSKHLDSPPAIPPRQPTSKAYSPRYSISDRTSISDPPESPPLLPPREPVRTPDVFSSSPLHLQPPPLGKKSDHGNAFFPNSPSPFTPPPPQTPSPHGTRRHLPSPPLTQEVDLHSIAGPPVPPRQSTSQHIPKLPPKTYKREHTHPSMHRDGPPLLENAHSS
Description: Inhibition of the binding of KRAS^G12C to SOS1. Conditions: Tag1-SOS1 / Tag2-KRAS^G12C, 2 h incubation at room temperature; read-out: IC50 (nM), inhibitory activity on the binding of KRAS^G12C to SOS1. As to the method: • (1) Gradient dilution of the test compounds: 10 mM mother solution (dissolved in 100% DMSO) was added to a 384-well test plate, the final content of DMSO being 0.25%.
(2) 5 μL of Tag1-SOS1 solution was added to the test plate, and 5 μL of dilution buffer was added to the control group.
(3) 5 μL of Tag2-KRAS^G12C solution was added to the test plate.
(4) 10 μL of Anti-Tag1-Tb3+ and Anti-Tag2-XL665 detection solution were added to the test plate. The plate was centrifuged at 1000 rpm for 1 min and incubated at room temperature for 2 h.
(6) The IC50 values for the compounds were finally calculated using GraphPad Prism software, and a curve was fit and plotted.
The inhibitory activity of the compounds of the examples of the present invention on the binding of KRAS^G12C enzyme to SOS1 is shown in Table 1.
For `COc1cc2nc(C)nc(N[C@H](C)c3cccc(C(F)(F)C(C)(C)O)c3F)c2cc1OCCN(C)S(C)(=O)=O` [Example 33, (R)—N-(2-((4-((1-(3-(1,1-Difluoro-2-hydroxy-2-methylpropyl)-2-fluorophenyl)ethyl)amino)-7-methoxy-2-methylquinazolin-6-yl)oxy)ethyl)-N-methylmethanesulfonamide], the IC50 turned out to be 7.5 nM.
As for `COc1cc2nc(C)nc(N[C@H](C)c3cc(N)cc(C(F)(F)F)c3)c2cc1OCC1(N(C)C)CC1` [Example 34, (R)—N-(1-(3-Amino-5-(trifluoromethyl)phenyl)ethyl)-6-((1-(dimethylamino)cyclopropyl)methoxy)-7-methoxy-2-methylquinazolin-4-amine], the concentration for half-maximal inhibition (IC50) was determined as 5.4 nM.
On to `COc1cc2nc(C)nc(N[C@H](C)c3cc(N)cc(C(F)(F)F)c3F)c2cc1OCCOC1CC1` [Example 35, (R)—N-(1-(5-Amino-2-fluoro-3-(trifluoromethyl)phenyl)ethyl)-6-(2-cyclopropoxyethyloxy)-7-methoxy-2-methylquinazolin-4-amine], for which the IC50 amounted to 17 nM.
Turning to `COc1cc2nc(C)nc(N[C@H](C)c3cc(C(F)(F)F)ccn3)c2cc1OCCOC1CC1` [Example 36, (R)-6-(2-Cyclopropoxyethyloxy)-7-methoxy-2-methyl-N-(1-(4-(trifluoromethyl)pyridin-2-yl)ethyl)quinazolin-4-amine], the IC50 was more than 1000 nM.
With `COc1cc2nc(C)nc(N[C@H](C)c3cc(C(F)(F)F)cc(N)n3)c2cc1OCCOC1CC1` [Example 38, (R)—N-(1-(6-Amino-4-(trifluoromethyl)pyridin-2-yl)ethyl)-6-(2-cyclopropoxyethyloxy)-7-m ethoxy-2-methylquinazolin-4-amine], the IC50 worked out at 33 nM.
Consider `COc1cc2nc(C)nc(N[C@H](C)c3cc(N)cc(C(F)(F)F)c3)c2cc1OC[C@@H]1CCCO1` [Example 39, N—((R)-1-(3-Amino-5-(trifluoromethyl)phenyl)ethyl)-7-methoxy-2-methyl-6-(((S)-tetrahydrofuran-2-yl)methoxy)quinazolin-4-amine], for which the IC50 came out at 21 nM.
For `COc1cc2nc(C)nc(N[C@H](C)c3cc(N)cc(C(F)(F)F)c3)c2cc1OC[C@H]1CCCO1` [Example 40, N—((R)-1-(3-Amino-5-(trifluoromethyl)phenyl)ethyl)-7-methoxy-2-methyl-6-(((R)-tetrahydrofuran-2-yl)methoxy)quinazolin-4-amine], the IC50 came to 8.2 nM.
As for `COc1cc2nc(C)nc(N[C@H](C)c3cc(N)nc(C(F)(F)F)c3)c2cc1OCCOC1CC1` [Example 41, (R)—N-(1-(2-Amino-6-(trifluoromethyl)pyridin-4-yl)ethyl)-6-(2-cyclopropoxyethoxy)-7-met hoxy-2-methylquinazolin-4-amine], the IC50 stood at 252 nM.
Consider `COCCOc1cc2c(N[C@H](C)c3cc(N)cc(C(F)(F)F)c3)nc(C)nc2cc1OC` [Example 42, (R)—N-(1-(3-Amino-5-(trifluoromethyl)phenyl)ethyl)-7-methoxy-6-(2-methoxyethoxy)-2-me thylquinazolin-4-amine], for which the IC50 was found to be 5.6 nM.
The result for `COCC1(COc2cc3c(N[C@H](C)c4cc(N)cc(C(F)(F)F)c4)nc(C)nc3cc2OC)COC1` [Example 43, (R)—N-(1-(3-Amino-5-(trifluoromethyl)phenyl)ethyl)-7-methoxy-6-((3-(methoxymethyl)oxetan-3-yl)methoxy)-2-methylquinazolin-4-amine] reads 5.2 nM.
`Cc1nc(N[C@H](C)c2cc(N)cc(C(F)(F)F)c2)c2cc(OCCOC3CC3)c(C(F)(F)F)cc2n1` [Example 45, (R)—N-(1-(3-Amino-5-(trifluoromethyl)phenyl)ethyl)-6-(2-cyclopropoxyethoxy)-2-methyl-7-(trifluoromethyl)quinazolin-4-amine]: the IC50 worked out at 167 nM.
As to `COc1cc2nc(C)nc(N[C@H](C)c3cc(N)cc(C(F)(F)F)c3)c2cc1OCC1(OC)CC1` [Example 46, (R)—N-(1-(3-Amino-5-(trifluoromethyl)phenyl)ethyl)-7-methoxy-6-((1-methoxycyclopropyl)methoxy)-2-methylquinazolin-4-amine], the 50% inhibitory concentration (IC50) was determined as 10 nM.

A word on the IC50: it is the concentration that gives 50% inhibition.
